Data taken from patent publication US11040036B2, “Pyruvate kinase activators for use in treating blood disorders” (Agios Pharmaceuticals, Inc., priority 2017, dated 2021).

Legend:
wild type PKR [1] = target: T1, wild type PKR (Homo sapiens, UniProt P30613); assay: PKR mutant assay (AC50), wild type PKR; format: biochemical; conditions: wild type PKR enzyme; read-out: PKR WT AC50
Method: (§1) Example 11. PKR Mutant Assay
(§2) PKR or PKR mutant enzyme solution was diluted into a reaction mix, which contains 1× buffer (100 mM KCl, 50 mM Tris pH 7.5, 5 mM MgCl2) as well as PEP (cont depends on enzyme), 180 μM NADH, 0.5 units LDH, 1 mM DTT, 0.03% BSA; final assay concentrations after 1.11 fold dilution are indicated.
(§3) 2 μL of test compound was added into wells first, and then 180 μL reaction mix was added.
(§4) Reactions mixture with test compound was assembled except for ADP, and plates were stored for 60 minutes at room temperature.
(§5) 20 uL ADP was added to start reaction at room temperature and reaction progress was measured as changes in absorbance at 340 nm wavelength at room temperature.
(§6) Test Compound Preparation:
(§7) Test compound stock was made at 100× concentration in 100% DMSO (10 mM)
(§8) 1 to 3 dilutions were made for 11 points (i.e. 50 μl of first concentration added to 100 μl 100% DMSO to yield 3.33 mM, 50 μl of this added to 100 μl DMSO to yield 1.11 mM, and so forth) • 1 to 100 dilution into assay (2 μl in 200 μl) yielded starting concentration of 100 μM, decreasing 3 fold for 11 points.
(§9) Assay Buffer: 100 mM KCl, 50 mM Tris 7.5, 5 mM MgCl2, 1 ruM DTT, 0.03% BSA
(§10) Reaction Mixture: PKR mutant enzyme: 40-400 ng/well; ADP: 0.2-1.65 mM; PEP: 0.1-0.5 mM; NADH:180 μM; LDH: 0.5 units (Sigma #59023); DTT: 1 mM; BSA: 0.03%.

PKR K410E = PKR K410E (Homo sapiens, UniProt P30613, K410E); assay: PKR mutant assay (AC50), PKR K410E; format: biochemical; conditions: PKR K410E mutant enzyme
Chain of PKR K410E (P30613 whole entry K410E): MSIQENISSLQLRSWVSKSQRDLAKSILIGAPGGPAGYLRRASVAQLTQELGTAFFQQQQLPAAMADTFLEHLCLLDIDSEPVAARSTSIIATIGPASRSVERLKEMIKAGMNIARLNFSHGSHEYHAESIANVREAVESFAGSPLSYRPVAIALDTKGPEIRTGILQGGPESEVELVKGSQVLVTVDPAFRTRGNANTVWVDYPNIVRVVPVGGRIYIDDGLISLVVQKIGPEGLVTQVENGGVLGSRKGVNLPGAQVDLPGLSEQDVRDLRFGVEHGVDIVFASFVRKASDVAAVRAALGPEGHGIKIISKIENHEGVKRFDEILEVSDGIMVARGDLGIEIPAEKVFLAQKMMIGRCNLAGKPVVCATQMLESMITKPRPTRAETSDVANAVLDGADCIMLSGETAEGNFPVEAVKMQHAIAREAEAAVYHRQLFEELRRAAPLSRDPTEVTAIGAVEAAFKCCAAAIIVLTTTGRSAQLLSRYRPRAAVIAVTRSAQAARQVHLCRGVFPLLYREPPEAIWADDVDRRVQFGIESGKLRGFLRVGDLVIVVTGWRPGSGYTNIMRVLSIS
Method: as §1, §2, §3, §4, §5, §6, §7, §8, §9, §10

PKR R510Q = PKR R510Q (Homo sapiens, UniProt P30613, R510Q); assay: PKR mutant assay (AC50), PKR R510Q; format: biochemical; conditions: PKR R510Q mutant enzyme; read-out: PK R510Q AC50
Chain of PKR R510Q (P30613 whole entry R510Q): as the sequence (P30613 whole entry K410E) above, with E410K, R510Q counted along it
Method: as §1, §2, §3, §4, §5, §6, §7, §8, §9, §10

wild type PKR [2] = target: T1, wild type PKR; assay: Cell based ATP assay in purified red blood cells; design: endogenous in cells; host or cells: purified red blood cells from blood of healthy volunteers; conditions: RBCs, overnight at 37° C., ATP levels by Cell-Titer-Glo
Method: Example 16. Red Blood Cell (RBC) Purification
Fresh blood drawn from healthy volunteers into K2EDTA tubes was collected. Whole blood was pelleted by spinning at 500 g for 10 minutes. Cut transfusion bag port off of Purecell leukocyte reduction neofilter (Fisher NCO267633) one (1) inch above filter. Attach a 10 ml syringe barrel to the remaining cut tubing attached to neofilter. The plasma layer was removed from the pellet of the whole blood and the pellet was resuspended in 2× volume of phosphate buffered saline (PBS). Transfer 9 ml re-suspended blood cell pellet to prepared 10 ml syringe that is attached to the neofilter. Allow whole blood to gravity flow through filter until all fluid runs through upper tubing into filter disc. Add plunger to the syringe, remove syringe from clamp and invert the filter, then plunge air through the syringe filter system. Using a new 5 ml syringe, remove filtered RBCs from the bag by the syringe port and transfer purified RBCs to a 5 ml snap cap tube that has been incubated on ice. Spin 5 ml snap cap tube at 500 g for 10 minutes at 15 C, aspirate supernatant and resuspend in AGAM (1×PBS, 1% glucose, 170 mg/L adenine, 5.25 g/L mannitol) at a density of 4×10^9 cells/mL.
Example 17. Cell Based ATP Assay
For cell based ATP assays, the compound as described herein was prepared in 100% DMSO as a 10 mM stock. Serial dilutions (1:4) were performed in 96-well V-bottom storage plate and then added 1:100 to 96-well V-bottom plates containing AGAM. RBCs were diluted in AGAM media to a density of 1×10^7 cells/mL before added 90 μL/well to black clear bottom assay plates (final compound concentration at 0.1% DMSO concentration). Assay plates were sealed using aluminum foil seals and incubated overnight at 37° C. in a humidified chamber. ATP levels were read out using Cell-Titer-Glo (Promega).

T1 sequence (P30613 whole entry): as the sequence (P30613 whole entry K410E) above, with E410K counted along it

Row | AC50 (wild type PKR [1]) [nM] | AC50 (PKR K410E) [nM] | AC50 (PKR R510Q) [nM] | AC50 (wild type PKR [2]) [nM] | Structure (SMILES)
1 | < 300 | < 300 | < 300 | ≤ 1000 | Cn1c2nc(Cc3cc[nH]n3)sc2c2cnn(Cc3n[nH]cc3F)c(=O)c21
2 | < 300 | < 300 | < 300 | ≤ 1000 | Cn1cc(OC(F)(F)F)c(Cn2ncc3c4sc(Cc5cc[nH]n5)nc4n(C)c3c2=O)n1
3 | < 300 | < 300 | < 300 | ≤ 1000 | Cn1cc(N)c(Cn2ncc3c4sc(Cc5cc[nH]n5)nc4n(C)c3c2=O)n1
4 | < 300 | < 300 | < 300 | ≤ 1000 | Cn1c2nc(Cc3cc[nH]n3)sc2c2cnn(Cc3ccc(=O)[nH]c3)c(=O)c21
5 | < 300 | < 300 | < 300 | ≤ 1000 | Cn1cc(C(F)(F)F)c(Cn2ncc3c4sc(Cc5cc[nH]n5)nc4n(C)c3c2=O)n1
6 | < 300 | < 300 | < 300 | ≤ 1000 | COc1cn(C)nc1Cn1ncc2c3sc(Cc4cc[nH]n4)nc3n(C)c2c1=O
7 | < 300 | < 300 | < 300 | ≤ 1000 | Cn1c2nc(Cc3cc[nH]n3)sc2c2cnn(Cc3ncsc3Br)c(=O)c21
8 | < 300 | < 300 | < 300 | ≤ 1000 | Cn1c2nc(Cc3cc[nH]n3)sc2c2cnn(Cc3coc(Cl)n3)c(=O)c21
9 | < 300 | < 300 | < 300 | ≤ 1000 | Cn1c2nc(Cc3cc[nH]n3)sc2c2cnn(Cc3nc[nH]n3)c(=O)c21
10 | < 300 | < 300 | < 300 | ≤ 1000 | Cn1c2nc(Cc3cc[nH]n3)sc2c2cnn(Cc3ncc[nH]3)c(=O)c21
11 | 301 to 800 | 301 to 800 | 301 to 800 | > 1000 | Cn1c2nc(Cc3cc[nH]n3)sc2c2cnn(Cc3n[nH]cc3OC(F)(F)F)c(=O)c21
12 | < 300 | < 300 | < 300 | ≤ 1000 | Cn1c2nc(Cc3cc[nH]n3)sc2c2cnn(Cc3c[nH]c(C(N)=O)n3)c(=O)c21
13 | < 300 | < 300 | < 300 | ≤ 1000 | Cn1c2nc(Cc3cc[nH]n3)sc2c2cnn(Cc3n[nH]cc3C(N)=O)c(=O)c21

The remaining lines, values behind:

Row | Structure (SMILES) | AC50 (wild type PKR [1]) [nM] | AC50 (PKR K410E) [nM] | AC50 (PKR R510Q) [nM] | AC50 (wild type PKR [2]) [nM]
14 | Cn1c2nc(Cc3cc[nH]n3)sc2c2cnn(Cc3cc(=O)[nH][nH]3)c(=O)c21 | 301 to 800 | 301 to 800 | < 300 | > 1000
15 | Cn1c2nc(Cc3ncsc3F)sc2c2cnn(Cc3c[nH]nn3)c(=O)c21 | < 300 | < 300 | < 300 | ≤ 1000
16 | COc1cccc(Cn2ncc3c4sc(Cc5cc[nH]n5)nc4n(C)c3c2=O)n1 | < 300 | < 300 | < 300 | ≤ 1000
17 | Cn1c2nc(Cn3ccnc3)sc2c2cnn(Cc3cc[nH]n3)c(=O)c21 | < 300 | < 300 | 301 to 800 | ≤ 1000
18 | Cn1c2nc(Cc3c[nH]cn3)sc2c2cnn(Cc3ncsc3Cl)c(=O)c21 | < 300 | < 300 | < 300 | ≤ 1000
19 | Cn1ccc(Cc2nc3c(s2)c2cnn(Cc4ccn(C)n4)c(=O)c2n3C)n1 | < 300 | < 300 | < 300 | ≤ 1000
20 | Cn1c2nc(Cc3ccccn3)sc2c2cnn(Cc3ccccn3)c(=O)c21 | < 300 | < 300 | 301 to 800 | ≤ 1000
21 | Cn1cc(CC(N)=O)c(Cn2ncc3c4sc(Cc5cc[nH]n5)nc4n(C)c3c2=O)n1 | > 800 | > 800 | > 800 | > 1000
22 | Cn1c2nc(Cc3n[nH]cc3F)sc2c2cnn(Cc3ccc[nH]c3=O)c(=O)c21 | < 300 | < 300 | < 300 | ≤ 1000
23 | Cn1ccc(Cc2nc3c(s2)c2cnn(Cc4c[nH]nn4)c(=O)c2n3C)n1 | < 300 | < 300 | < 300 | ≤ 1000
24 | COc1sc(Br)nc1Cc1nc2c(s1)c1cnn(Cc3cc[nH]n3)c(=O)c1n2C | < 300 | < 300 | < 300 | ≤ 1000
25 | Cn1c2nc(Cn3ccc(N)n3)sc2c2cnn(Cc3cc[nH]n3)c(=O)c21 | < 300 | < 300 | < 300 | ≤ 1000
26 | Cn1c2nc(Cc3cscn3)sc2c2cnn(Cc3c[nH]nn3)c(=O)c21 | < 300 | < 300 | < 300 | ≤ 1000
27 | Cn1c2nc(Cc3c[nH]nn3)sc2c2cnn(Cc3cccc(N)n3)c(=O)c21 | < 300 | < 300 | < 300 | ≤ 1000
28 | Cn1c2nc(Cc3c[nH]nn3)sc2c2cnn(Cc3nccs3)c(=O)c21 | 301 to 800 | < 300 | < 300 | ≤ 1000
29 | Cn1ccc(Cn2ncc3c4sc(Cc5csc(CO)n5)nc4n(C)c3c2=O)n1 | < 300 | < 300 | < 300 | ≤ 1000
30 | Cn1c2nc(Cc3nc(N)ccc3F)sc2c2cnn(Cc3cc[nH]n3)c(=O)c21 | < 300 | < 300 | < 300 | ≤ 1000
31 | Cn1c2nc(Cc3n[nH]cc3F)sc2c2cnn(Cc3n[nH]cc3C#N)c(=O)c21 | < 300 | < 300 | < 300 | ≤ 1000
32 | CN(C)c1cccc(Cc2nc3c(s2)c2cnn(Cc4cc[nH]n4)c(=O)c2n3C)n1 | < 300 | < 300 | < 300 | ≤ 1000
33 | Cc1scnc1Cn1ncc2c3sc(Cc4n[nH]cc4F)nc3n(C)c2c1=O | < 300 | < 300 | < 300 | ≤ 1000
34 | Cn1c2nc(Cc3csc(CO)n3)sc2c2cnn(Cc3cccc(N)n3)c(=O)c21 | < 300 | < 300 | < 300 | ≤ 1000
35 | Cn1c2nc(Cc3cc[nH]n3)sc2c2cnn(Cc3ccns3)c(=O)c21 | < 300 | < 300 | < 300 | ≤ 1000
36 | Cn1c2nc(Cc3cc[nH]n3)sc2c2cnn(Cc3cnc(C(N)=O)o3)c(=O)c21 | 301 to 800 | 301 to 800 | 301 to 800 | > 1000
37 | Cn1cc(Cn2ncc3c4sc(Cc5cc[nH]n5)nc4n(C)c3c2=O)nn1 | < 300 | < 300 | < 300 | ≤ 1000
38 | Cc1ccc(Cn2ncc3c4sc(Cc5cc[nH]n5)nc4n(C)c3c2=O)nc1N | < 300 | < 300 | < 300 | ≤ 1000
39 | Cn1ccc(Cn2ncc3c4sc(Cc5ccccn5)nc4n(C)c3c2=O)n1 | < 300 | < 300 | < 300 | ≤ 1000
40 | Cn1c2nc(Cc3cc[nH]n3)sc2c2cnn(Cc3cccc(C#N)n3)c(=O)c21 | < 300 | < 300 | < 300 | ≤ 1000
41 | Cn1c2nc(Cc3cc[nH]n3)sc2c2cnn(Cc3ccc(F)c(Br)n3)c(=O)c21 | < 300 | < 300 | < 300 | ≤ 1000
42 | Cn1c2nc(Cc3cc[nH]n3)sc2c2cnn(Cc3nccs3)c(=O)c21 | < 300 | < 300 | < 300 | ≤ 1000
